From US20160002247A1, “8-SUBSTITUTED IMIDAZOPYRIMIDINONE DERIVATIVE HAVING AUTOTAXIN INHIBITORY ACTIVITY” (THE UNIVERSITY OF TOKYO, priority 2013, published 2016)

These compounds were tested against T1, Human autotaxin enzyme (Homo sapiens, UniProt Q13822) (assay: Evaluation of autotaxin inhibitor, Method C (Test Example 3): 18:0 Lyso PC, choline assay, Resorufin fluorescence). Settings: Assay Method C (Test Example 3), human autotaxin, 18:0 Lyso PC substrate; read-out: Inhibitory Activity (autotaxin enzyme inhibitory activity, IC50 class).
T1 construct: purchased R&D System
Assay type: biochemical
Outline: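 Human autotaxin in Tris-HCl pH 7.5, 150 mM NaCl, 5 mM MgCl2, 0.05% Triton X-100 reacted 2 h at room temperature with 18:0 Lyso PC (200 μM solution added). Released choline detected via choline oxidase/peroxidase/Amplex-type reagent, resorufin fluorescence (ex 531/em 598 nm); inhibition vs no-compound and no-enzyme controls, concentration-response curve.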

Row | SMILES | IC50
1 | CCCCCn1c(OC2CN(CCC(=O)O)C2)cc(=O)n2cc(-c3ccc(Cl)cc3)nc12 [Compound 570] | < 10 nM
2 | CCCCCn1c(N2CCC[C@H]2C(=O)NCC(C)C(=O)OC)cc(=O)n2cc(-c3ccc(Cl)cc3)nc12 (some centres unmarked) [Compound 571] | 100 to 1000 nM
3 | CCCCCn1c(O[C@H]2CCNC2)cc(=O)n2cc(-c3ccc(Cl)cc3)nc12 [Compound 572] | 10 to 100 nM
4 | CCCCCn1c(O[C@H]2CCN(CC(=O)OC(C)(C)C)C2)cc(=O)n2cc(-c3ccc(Cl)cc3)nc12 [Compound 573] | 10 to 100 nM
5 | CCCCCn1c(OC2CN(CC(=O)OC(C)(C)C)C2)cc(=O)n2cc(-c3ccc(Cl)cc3)nc12 [Compound 574] | 10 to 100 nM
6 | CCCCCn1c(O[C@H]2CCN(CC(=O)O)C2)cc(=O)n2cc(-c3ccc(Cl)cc3)nc12 [Compound 575] | 10 to 100 nM
7 | CCCCCn1c(O[C@H]2CCN(CCC(=O)O)C2)cc(=O)n2cc(-c3ccc(Cl)cc3)nc12 [Compound 576] | 10 to 100 nM
8 | CCCCCn1c(OC2CN(CC(=O)O)C2)cc(=O)n2cc(-c3ccc(Cl)cc3)nc12 [Compound 577] | < 10 nM
9 | CCCCCn1c(O[C@H]2CCN(CCC(=O)OC(C)(C)C)C2)cc(=O)n2cc(-c3ccc(Cl)cc3)nc12 [Compound 578] | 10 to 100 nM
10 | CCCCCn1c(N2C[C@H](F)C[C@H]2C(=O)NCCC(=O)O)cc(=O)n2cc(-c3ccc(Cl)cc3)nc12 [Compound 579] | 10 to 100 nM
11 | CCCCCn1c(N2C[C@@H](F)C[C@H]2C(=O)NCCC(=O)O)cc(=O)n2cc(-c3ccc(Cl)cc3)nc12 [Compound 580] | < 10 nM
12 | CCCCCn1c(N2C[C@H](O)C[C@H]2C(=O)NCCC(=O)O)cc(=O)n2cc(-c3ccc(Cl)cc3)nc12 [Compound 581] | < 10 nM
13 | CCCCCn1c(N2C[C@@H](O)C[C@H]2C(=O)NCCC(=O)O)cc(=O)n2cc(-c3ccc(Cl)cc3)nc12 [Compound 582] | < 10 nM
14 | CCCCCn1c(N2C[C@H](F)C[C@H]2C(=O)NC(C)(C)CC(=O)O)cc(=O)n2cc(-c3ccc(Cl)cc3)nc12 [Compound 583] | < 10 nM
15 | CCCCCn1c(N2C[C@@H](F)C[C@H]2C(=O)NC(C)(C)CC(=O)O)cc(=O)n2cc(-c3ccc(Cl)cc3)nc12 [Compound 584] | < 10 nM
16 | CCCCCn1c(N2C[C@H](O)C[C@H]2C(=O)NC(C)(C)CC(=O)O)cc(=O)n2cc(-c3ccc(Cl)cc3)nc12 [Compound 585] | < 10 nM
17 | CCCCCn1c(N2C[C@@H](O)C[C@H]2C(=O)NC(C)(C)CC(=O)O)cc(=O)n2cc(-c3ccc(Cl)cc3)nc12 [Compound 586] | < 10 nM
18 | CCCCCn1c(N2C[C@H](F)C[C@H]2C(=O)O)cc(=O)n2cc(-c3ccc(Cl)cc3)nc12 [Compound 587] | > 1000 nM
19 | CCCCCn1c(N2C[C@@H](F)C[C@H]2C(=O)O)cc(=O)n2cc(-c3ccc(Cl)cc3)nc12 [Compound 588] | 100 to 1000 nM
20 | CCCCCn1c(N2C[C@H](O)C[C@H]2C(=O)O)cc(=O)n2cc(-c3ccc(Cl)cc3)nc12 [Compound 589] | > 1000 nM
21 | CCCCCn1c(N2C[C@@H](O)C[C@H]2C(=O)O)cc(=O)n2cc(-c3ccc(Cl)cc3)nc12 [Compound 590] | 100 to 1000 nM
22 | CCCCCn1c(N2C[C@H](F)C[C@H]2C(=O)NCCC(=O)OCC)cc(=O)n2cc(-c3ccc(Cl)cc3)nc12 [Compound 591] | 100 to 1000 nM
23 | CCCCCn1c(N2C[C@@H](F)C[C@H]2C(=O)NCCC(=O)OCC)cc(=O)n2cc(-c3ccc(Cl)cc3)nc12 [Compound 592] | 10 to 100 nM

Row | SMILES | IC50
24 | CCCCCn1c(N2C[C@H](O)C[C@H]2C(=O)NCCC(=O)OCC)cc(=O)n2cc(-c3ccc(Cl)cc3)nc12 [Compound 593] | 10 to 100 nM
25 | CCCCCn1c(N2C[C@@H](O)C[C@H]2C(=O)NCCC(=O)OCC)cc(=O)n2cc(-c3ccc(Cl)cc3)nc12 [Compound 594] | 10 to 100 nM
26 | CCCCCn1c(N2C[C@H](F)C[C@H]2C(=O)NC(C)(C)CC(=O)OCC)cc(=O)n2cc(-c3ccc(Cl)cc3)nc12 [Compound 595] | 100 to 1000 nM
27 | CCCCCn1c(N2C[C@@H](F)C[C@H]2C(=O)NC(C)(C)CC(=O)OCC)cc(=O)n2cc(-c3ccc(Cl)cc3)nc12 [Compound 596] | 10 to 100 nM
28 | CCCCCn1c(N2C[C@H](O)C[C@H]2C(=O)NC(C)(C)CC(=O)OCC)cc(=O)n2cc(-c3ccc(Cl)cc3)nc12 [Compound 597] | 10 to 100 nM
29 | CCCCCn1c(N2C[C@@H](O)C[C@H]2C(=O)NC(C)(C)CC(=O)OCC)cc(=O)n2cc(-c3ccc(Cl)cc3)nc12 [Compound 598] | 10 to 100 nM
30 | CCCCCn1c(N2CCC[C@H]2CC(=O)O)cc(=O)n2cc(-c3ccc(Cl)cc3)nc12 [Compound 599] | 10 to 100 nM
31 | CCCCCn1c(N2CCC[C@H](C(=O)O)C2)cc(=O)n2cc(-c3ccc(Cl)cc3)nc12 [Compound 600] | < 10 nM
32 | CCCCCn1c(NCCC(=O)O)cc(=O)n2cc(-c3ccc(Cl)cc3)nc12 [Compound 601] | 100 to 1000 nM
33 | CCCCCn1c(N(C)CC(=O)O)cc(=O)n2cc(-c3ccc(Cl)cc3)nc12 [Compound 602] | 100 to 1000 nM
34 | CCCCCn1c(NCC(=O)NCC(=O)O)cc(=O)n2cc(-c3ccc(Cl)cc3)nc12 [Compound 603] | 100 to 1000 nM
35 | CCCCCn1c(N2CCCC[C@H]2C(=O)O)cc(=O)n2cc(-c3ccc(Cl)cc3)nc12 [Compound 604] | 100 to 1000 nM
36 | CCCCCn1c(N2CCC[C@@H]2CC(=O)O)cc(=O)n2cc(-c3ccc(Cl)cc3)nc12 [Compound 605] | 100 to 1000 nM
37 | CCCCCn1c(N2CCC[C@@]2(C)C(=O)O)cc(=O)n2cc(-c3ccc(Cl)cc3)nc12 [Compound 606] | > 1000 nM
38 | CCCCCn1c(NCCCC(=O)O)cc(=O)n2cc(-c3ccc(Cl)cc3)nc12 [Compound 607] | 10 to 100 nM
39 | CCCCCn1c(N2CCC[C@@H](C(=O)O)C2)cc(=O)n2cc(-c3ccc(Cl)cc3)nc12 [Compound 608] | 10 to 100 nM
40 | CCCCCn1c(N(C)CC(=O)NCC(=O)O)cc(=O)n2cc(-c3ccc(Cl)cc3)nc12 [Compound 609] | 10 to 100 nM
41 | CCCCCn1c(NC2(C(=O)O)CC2)cc(=O)n2cc(-c3ccc(Cl)cc3)nc12 [Compound 610] | > 1000 nM
42 | CCCCCn1c(NCCCCC(=O)O)cc(=O)n2cc(-c3ccc(Cl)cc3)nc12 [Compound 611] | 10 to 100 nM
43 | CCCCCn1c(N2CCCC[C@@H]2C(=O)O)cc(=O)n2cc(-c3ccc(Cl)cc3)nc12 [Compound 612] | 100 to 1000 nM
44 | CCCCCn1c(N[C@@H]2CCC[C@H]2C(=O)O)cc(=O)n2cc(-c3ccc(Cl)cc3)nc12 [Compound 613] | 10 to 100 nM
45 | CCCCCn1c(N2CCN(C(=O)OC(C)(C)C)C(C(=O)NCCC(=O)O)C2)cc(=O)n2cc(-c3ccc(Cl)cc3)nc12 (centres unmarked) [Compound 614] | 100 to 1000 nM
46 | CCCCCn1c(N2CCC[C@H]2CC(=O)NCCC(=O)O)cc(=O)n2cc(-c3ccc(Cl)cc3)nc12 [Compound 615] | < 10 nM

Row | SMILES | IC50
47 | CCCCCn1c(N2CCC[C@H](C(=O)NCCC(=O)O)C2)cc(=O)n2cc(-c3ccc(Cl)cc3)nc12 [Compound 616] | < 10 nM
48 | CCCCCn1c(NCCC(=O)NCCC(=O)O)cc(=O)n2cc(-c3ccc(Cl)cc3)nc12 [Compound 617] | 100 to 1000 nM
49 | CCCCCn1c(N(C)CC(=O)NCCC(=O)O)cc(=O)n2cc(-c3ccc(Cl)cc3)nc12 [Compound 618] | 10 to 100 nM
50 | CCCCCn1c(N2CCN(C(=O)OC(C)(C)C)C[C@@H]2C(=O)NCCC(=O)O)cc(=O)n2cc(-c3ccc(Cl)cc3)nc12 [Compound 619] | 10 to 100 nM
51 | CCCCCn1c(N2CCN(C(=O)OC(C)(C)C)C[C@H]2C(=O)NCCC(=O)O)cc(=O)n2cc(-c3ccc(Cl)cc3)nc12 [Compound 620] | < 10 nM
52 | CCCCCn1c(N2CCCC[C@H]2C(=O)NCCC(=O)O)cc(=O)n2cc(-c3ccc(Cl)cc3)nc12 [Compound 621] | < 10 nM
53 | CCCCCn1c(N2CCC[C@@H]2CC(=O)NCCC(=O)O)cc(=O)n2cc(-c3ccc(Cl)cc3)nc12 [Compound 622] | 100 to 1000 nM
54 | CCCCCn1c(N2CCC[C@@]2(C)C(=O)NCCC(=O)O)cc(=O)n2cc(-c3ccc(Cl)cc3)nc12 [Compound 623] | 100 to 1000 nM
55 | CCCCCn1c(N2CCC[C@@H](C(=O)NCCC(=O)O)C2)cc(=O)n2cc(-c3ccc(Cl)cc3)nc12 [Compound 624] | 10 to 100 nM
56 | CCCCCn1c(NC2(C(=O)NCCC(=O)O)CC2)cc(=O)n2cc(-c3ccc(Cl)cc3)nc12 [Compound 625] | 100 to 1000 nM
57 | CCCCCn1c(N2CCCC[C@@H]2C(=O)NCCC(=O)O)cc(=O)n2cc(-c3ccc(Cl)cc3)nc12 [Compound 626] | 10 to 100 nM
58 | CCCCCn1c(N2CCN(C(=O)OC(C)(C)C)C(C(=O)NCC(=O)O)C2)cc(=O)n2cc(-c3ccc(Cl)cc3)nc12 (centres unmarked) [Compound 627] | 100 to 1000 nM
59 | CCCCCn1c(N2CCC[C@H]2CC(=O)NCC(=O)O)cc(=O)n2cc(-c3ccc(Cl)cc3)nc12 [Compound 628] | < 10 nM
60 | CCCCCn1c(N2CCC[C@H](C(=O)NCC(=O)O)C2)cc(=O)n2cc(-c3ccc(Cl)cc3)nc12 [Compound 629] | < 10 nM
61 | CCCCCn1c(NCCC(=O)NCC(=O)O)cc(=O)n2cc(-c3ccc(Cl)cc3)nc12 [Compound 630] | 100 to 1000 nM
62 | CCCCCn1c(N2CCN(C(=O)OC(C)(C)C)C[C@@H]2C(=O)NCC(=O)O)cc(=O)n2cc(-c3ccc(Cl)cc3)nc12 [Compound 631] | 100 to 1000 nM
63 | CCCCCn1c(N2CCN(C(=O)OC(C)(C)C)C[C@H]2C(=O)NCC(=O)O)cc(=O)n2cc(-c3ccc(Cl)cc3)nc12 [Compound 632] | 10 to 100 nM
64 | CCCCCn1c(N2CCCC[C@H]2C(=O)NCC(=O)O)cc(=O)n2cc(-c3ccc(Cl)cc3)nc12 [Compound 633] | 10 to 100 nM
65 | CCCCCn1c(N2CCC[C@@H]2CC(=O)NCC(=O)O)cc(=O)n2cc(-c3ccc(Cl)cc3)nc12 [Compound 634] | 100 to 1000 nM
66 | CCCCCn1c(N2CCC[C@@]2(C)C(=O)NCC(=O)O)cc(=O)n2cc(-c3ccc(Cl)cc3)nc12 [Compound 635] | > 1000 nM
67 | CCCCCn1c(N2CCC[C@@H](C(=O)NCC(=O)O)C2)cc(=O)n2cc(-c3ccc(Cl)cc3)nc12 [Compound 636] | 10 to 100 nM
68 | CCCCCn1c(NC2(C(=O)NCC(=O)O)CC2)cc(=O)n2cc(-c3ccc(Cl)cc3)nc12 [Compound 637] | > 1000 nM
